According to PMC5164911, “Comparative Analysis of the Interaction between Different Flavonoids and PDIA3” (Oxidative Medicine and Cellular Longevity, 2016):

Tests used:
PDIA3 [1] = biological target: T1, PDIA3 (Homo sapiens, UniProt P30101); experiment: Fluorescence quenching titration of PDIA3 intrinsic fluorescence; assay type: binding; conditions: for Stern-Volmer constant (K SV): 0.5∗10^−6 M PDIA3 in reduced conditions, pH 7.4, 25°C, flavonoid 0 to 10∗10^−6 M, mean and standard deviation; for bimolecular quenching rate constant (K q): K SV = K q τ0 with τ0 of the order of 10^−8 s; for bimolecular quenching rate constant (K q) / Kd / binding constant (K b): reduced PDIA3, pH 7.4, 25°C; for Kd: K d = 1/K b, read-out: dissociation constant (K d); for binding constant (K b): equation of Bi et al., reiterative calculation of Sun et al.
T1 construct: made in house; host or cells: E. coli BL21 (vector pET21)
T1 sequence (P30101 25-505): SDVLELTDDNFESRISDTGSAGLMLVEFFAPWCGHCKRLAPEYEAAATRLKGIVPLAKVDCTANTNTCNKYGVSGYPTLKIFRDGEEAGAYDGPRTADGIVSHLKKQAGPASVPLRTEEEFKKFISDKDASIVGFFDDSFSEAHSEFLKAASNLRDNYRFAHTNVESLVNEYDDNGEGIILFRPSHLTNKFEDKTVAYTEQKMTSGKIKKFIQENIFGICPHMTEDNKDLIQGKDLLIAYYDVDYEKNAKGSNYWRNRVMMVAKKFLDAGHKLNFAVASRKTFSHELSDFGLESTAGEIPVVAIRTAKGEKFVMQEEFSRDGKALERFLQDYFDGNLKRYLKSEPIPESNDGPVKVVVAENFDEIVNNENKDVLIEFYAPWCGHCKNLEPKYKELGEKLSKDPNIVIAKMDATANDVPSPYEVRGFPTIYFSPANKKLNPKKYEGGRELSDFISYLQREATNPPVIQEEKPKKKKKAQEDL
Experimental: Quantitative analysis of the interaction between individual flavonoids and PDIA3 was performed by fluorimetric titration. […] Briefly, solution of PDIA3 (0.5 μM) or a and a′ domains (1 μM) in phosphate buffered saline (PBS) containing DTT 0.1 mM and EDTA 0.2 mM were titrated in quartz cuvette by stepwise additions, at 5 min time intervals, of individual flavonoid solution (1 mM in PBS/ethanol 50 : 50 v/v freshly prepared from a 20 mM stock solution in DMSO). […] To minimize the inner-filter effect we limited the highest concentration reached in the titration test up to 10 μM. All experiments were carried out at 25°C. Each spectrum was the mean of three repeated scans. Fluorescence spectra of appropriate blanks (flavonoids without proteins) were recorded under the same experimental conditions and subtracted from the corresponding flavonoid-protein system to correct the fluorescence background.
Quenching analysis was performed on PDIA3 (0.5 μM), in the reduced form, by adding stepwise increasing concentration of each molecule and recording the protein fluorescence spectra. For some flavonoids the analysis was extended to isolate a′ domain (1 μM), always in the reduced form. […] For each ligand molecule the Stern-Volmer quenching constant was obtained by linear regression of plots of F 0/F versus [L].
The Stern-Volmer quenching constant may be expressed as K SV = K q τ 0, where K q is the quencher rate coefficient and τ 0 is the average lifetime of the emissive excited state of the protein in the absence of the quencher.
The number of binding sites (n) and the binding constant (K b) were obtained by plotting log((F 0 − F)/F) versus log(1/([L t] − n(F 0 − F)[P t]/F 0)) using the reiterative calculation process described by Sun et al., assuming a similar affinity for each binding site.

PDIA3 [2] = biological target: T1, PDIA3; experiment: Differential scanning fluorimetry (thermal stability, SYPRO Orange); assay type: binding; conditions: for Increase in melting temperature (T m) of PDIA3: 50 μM flavonoid, reduced PDIA3 1 μM; for Effect on PDIA3 stability (T m): flavonoid up to 50 μM, mainly at the highest concentration
Experimental: Protein stability was tested by the fluorescence-based thermal stability assay or differential scanning fluorimetry (DSF) developed by Pantoliano and coworkers. DSF records the fluorescence emission signal from the binding of a dye (SYPRO orange) to the exposed hydrophobic patches upon protein unfolding. Fluorescence measurements were performed using a CFX96 Connect RT-PCR instrument (BioRad). 18 μl aliquots of protein solution (1 μM), freshly diluted in Tris Buffered saline (50 mM TrisHCl, pH 8.0, 150 mM NaCl) containing 0.1 mM DTT, 0.2 mM EDTA, and 1 : 1000 dilution of SYPRO Orange (50 mM stock solution in DMSO), were distributed in a 96-well plate. Sample wells were addition of increasing concentration (up to 50 μM) of individual flavonoid by adding 2 μl of 10-fold concentrated stock solutions freshly prepared. As control, the protein solution was added with 2 μl of the dilution buffer. A melting point analysis was recorded increasing the temperature from 20 to 95°C with an increment of 0.5°C and reading, at each temperature, the fluorescence in fluorescence resonance energy transfer mode (FRET). Each measure was the average of three sample wells reading and each DSF experiment was repeated at least three times. To calculate T m values, DSF data from the melting curve were exported and fitted to Boltzman equation using GraphPad software. Effect of flavonoids was evaluated comparing the T m values in presence and absence of each molecule.

PDIA3 [3] = biological target: T1, PDIA3; experiment: Disulfide reductase activity with DiE-GSSG fluorogenic probe; assay type: biochemical; conditions: DiE-GSSG substrate
Experimental: Disulfide reductase activity of ERp57 was monitored by sensitive fluorescent assay using dieosin glutathione disulfide (DiE-GSSG) as fluorogenic probe. DiE-GSSG was synthesized by the reaction of eosin isothiocyanate with oxidized glutathione (GSSG) according to the method of Raturi and Mutus with some modifications. DiE-GSSG concentration was determined spectrophotometrically (ℇ 525 = 88,000 M^-1 cm^−1). Disulfide reductase activity was assayed in a reaction buffer containing 2 mM EDTA, 150 nM DiE-GSSG, and 5 μM DTT in PBS. A 20 μl aliquot of a stock solution of PDIA3 (1 μM) was added to the reaction mixture and DiE-GSSG reduction was monitored at 545 nm with excitation at 520 nm, at 25°C with continuous stirring. Reductase activity was calculated as the initial velocity in fluorescence increase. To test the effect of flavonoids on PDIA3 activity, the protein stock solution was previously incubated for 15 minutes at room temperature with different concentrations of each flavonoid and then a 20 μl aliquot subjected to assay in a reaction buffer containing the same concentration of the flavonoid.
Fluorescence quenching constant (K SV) values were given as means ± standard deviation and values of disulfide reductase activity were expressed in % of control sample ± relative standard deviation. All measurements were performed at least three times. Dunnett's test was used to compare the obtained reductase activity data with the activity of the untreated protein and a p value of <0.01 was considered as statistically significant.

Structure (SMILES)	Stern-Volmer constant (K SV) (PDIA3 [1]) [M⁻¹]	bimolecular quenching rate constant (K q) (PDIA3 [1]) [M⁻¹ s⁻¹]	Kd (PDIA3 [1]) [µM]	binding constant (K b) (PDIA3 [1]) [M⁻¹]	Increase in melting temperature (T m) of PDIA3 (PDIA3 [2])	Inhibition of disulfide reductase (redox) activity (PDIA3 [3]; 20 μM flavonoid (Figure 7))	Effect on disulfide reductase activity (in words) (PDIA3 [3])	Effect on PDIA3 stability (T m) (PDIA3 [2])
O=c1c(O)c(-c2ccc(O)cc2O)oc2cc(O)cc(O)c12 [Morin, morin]	24063 ± 265	2.41e+12	39	25600	increased more than three degrees	approximately 20%	some inhibitory effect	
O=c1c(-c2ccc(O)cc2)coc2cc(O)cc(O)c12 [Genistein, genistein]	22953 ± 435	2.3e+12	41	24400				similar, but less pronounced, effect
O=c1c(O)c(-c2ccc(O)cc2)oc2cc(O)cc(O)c12 [Kaempferol, kaempferol]	28423 ± 982	2.84e+12	38.5	26000	increased more than three degrees			
O=c1cc(-c2ccc(O)cc2)oc2cc(O[C@@H]3O[C@H](CO)[C@@H](O)[C@H](O)[C@H]3O)cc(O)c12 [Apigenin-7-glucoside, apigenin-7-glucoside]	43961 ± 673	4.4e+12	21.1	47300				
COc1ccc(-c2cc(=O)c3cc(OC)ccc3o2)c(OC)c1 [Trimethoxyflavone, 6,2′,4′-trimethoxyflavone]	22209 ± 484	2.22e+12	55.2					
O=C1C[C@@H](c2ccc(O)cc2)Oc2cc(O)cc(O)c21 [Naringenin, naringenin]	16900 ± 352	1.69e+12	57.8	17300				
O=c1c(O)c(-c2ccc(O)c(O)c2)oc2cc(O)ccc12 [Fisetin, fisetin]	33164 ± 542	3.32e+12	27.1	36700	increased more than three degrees			
C[C@@H]1O[C@@H](OC[C@H]2O[C@@H](Oc3c(-c4ccc(O)c(O)c4)oc4cc(O)cc(O)c4c3=O)[C@H](O)[C@@H](O)[C@@H]2O)[C@H](O)[C@H](O)[C@H]1O [Rutin, rutin]	45197 ± 465	4.52e+12	22	45500				
COc1cc(-c2oc3cc(O)cc(O)c3c(=O)c2O)ccc1O [Isorhamnetin, isorhamnetin]	36109 ± 1271	3.61e+12	30.8	32500				similar, but less pronounced, effect
O=c1c(O[C@@H]2O[C@H](CO)[C@@H](O)[C@H](O)[C@H]2O)c(-c2ccc(O)c(O)c2)oc2cc(O)cc(O)c12 [Isoquercetin, isoquercetin]	25738 ± 367	2.57e+12	34.4	29100				
COc1c(-c2ccc(O)c(O)c2)oc2cc(O)cc(O)c2c1=O [3-O-Methyl-quercetin, 3-O-methyl quercetin]	41110 ± 794	4.11e+12	21.9	45700				
COc1cc(O)c2c(=O)c(O)c(-c3ccc(O)c(O)c3)oc2c1 [Rhamnetin, rhamnetin]	28462 ± 295	2.85e+12	33.2	30100				similar, but less pronounced, effect
O=c1cc(-c2ccc(O)c(O)c2)oc2cc(O[C@@H]3O[C@H](CO)[C@@H](O)[C@H](O)[C@H]3O)cc(O)c12 [Luteolin-7-glucoside, luteolin-7-glucoside]	31601 ± 484	3.16e+12	28.9	34600				
C[C@@H]1O[C@@H](Oc2c(-c3ccc(O)c(O)c3)oc3cc(O)cc(O)c3c2=O)[C@H](O)[C@H](O)[C@H]1O [Quercitrin, quercitrin]	29211 ± 483	2.92e+12	31	32300				
